Assay results published in patent US9902702B2, “Spirocycloheptanes as inhibitors of rock” (BRISTOL-MYERS SQUIBB COMPANY, priority 2014, dated 2018).

Molecular target: ROCK2 (Homo sapiens, UniProt O75116)
Test: ROCK assay: phosphorylation of FITC peptide substrate, LABCHIP 3000 mobility shift
Type: biochemical
Settings: 5 μM ATP, 1.5 μM peptide substrate; read-out: ROCK2 Activity (ROCK IC50 range)
How it was run: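 Rho kinase variant phosphorylates 1.5 μM FITC-AHA-AKRRRLSSLRA-OH with 5 μM ATP in 20 mM HEPES pH 7.5, 20 mM MgCl2, 0.015% Brij-35, 4 mM DTT, DMSO <2%. EDTA stops the reaction, and phospho and non-phospho peptides are resolved by LabChip 3000 mobility shift. IC50 from dose-response curve fit.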

ROCK2, sequence (O75116 whole entry, species assumed): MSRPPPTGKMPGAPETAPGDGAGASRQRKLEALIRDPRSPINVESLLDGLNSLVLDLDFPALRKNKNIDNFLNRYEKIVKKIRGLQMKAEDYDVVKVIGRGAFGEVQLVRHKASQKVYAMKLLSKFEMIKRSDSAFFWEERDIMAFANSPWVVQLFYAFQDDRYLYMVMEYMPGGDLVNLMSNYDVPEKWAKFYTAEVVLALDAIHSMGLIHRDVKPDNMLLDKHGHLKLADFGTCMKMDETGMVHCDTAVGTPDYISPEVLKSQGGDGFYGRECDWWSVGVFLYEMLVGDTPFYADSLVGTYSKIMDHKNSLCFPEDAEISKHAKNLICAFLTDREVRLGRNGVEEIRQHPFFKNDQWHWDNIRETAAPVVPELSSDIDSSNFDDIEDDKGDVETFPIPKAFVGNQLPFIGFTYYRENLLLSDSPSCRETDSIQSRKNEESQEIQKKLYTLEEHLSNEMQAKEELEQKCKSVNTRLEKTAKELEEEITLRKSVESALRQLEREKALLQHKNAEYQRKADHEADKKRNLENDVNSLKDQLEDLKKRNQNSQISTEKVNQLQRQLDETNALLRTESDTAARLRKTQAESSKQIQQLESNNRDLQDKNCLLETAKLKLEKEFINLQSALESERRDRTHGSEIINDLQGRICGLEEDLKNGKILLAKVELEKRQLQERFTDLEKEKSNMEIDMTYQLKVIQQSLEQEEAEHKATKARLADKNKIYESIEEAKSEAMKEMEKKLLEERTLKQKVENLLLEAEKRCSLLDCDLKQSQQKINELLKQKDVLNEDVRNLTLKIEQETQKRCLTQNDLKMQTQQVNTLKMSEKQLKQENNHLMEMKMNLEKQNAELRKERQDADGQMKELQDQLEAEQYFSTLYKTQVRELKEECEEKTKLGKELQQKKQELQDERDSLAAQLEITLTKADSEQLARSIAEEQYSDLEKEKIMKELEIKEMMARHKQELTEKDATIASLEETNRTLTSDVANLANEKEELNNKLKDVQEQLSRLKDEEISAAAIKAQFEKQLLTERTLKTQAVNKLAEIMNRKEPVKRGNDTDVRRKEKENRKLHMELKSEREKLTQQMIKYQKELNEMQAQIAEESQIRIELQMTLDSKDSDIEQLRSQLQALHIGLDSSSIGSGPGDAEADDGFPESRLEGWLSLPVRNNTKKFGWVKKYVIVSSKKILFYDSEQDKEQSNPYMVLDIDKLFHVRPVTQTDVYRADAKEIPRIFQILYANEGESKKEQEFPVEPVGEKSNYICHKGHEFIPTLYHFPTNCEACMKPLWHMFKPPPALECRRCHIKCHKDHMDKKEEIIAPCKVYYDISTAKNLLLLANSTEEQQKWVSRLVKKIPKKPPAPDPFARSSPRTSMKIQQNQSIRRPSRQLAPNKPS

SMILES | IC50
O=C(N[C@H]1CC2(C1)C[C@H](c1n[nH]c(=O)c3ccccc31)C2)c1cnn2cc(OC[C@@H](O)C(F)(F)F)ccc12 (stereo partly drawn) [Example 120, N-((aR)-6-(4-oxo-3,4-dihydrophthalazin-1-yl)spiro[3.3]heptan-2-yl)-6-(3,3,3-trifluoro-2-hydroxypropoxy)pyrazolo[1,5-a]pyridine-3-carboxamide] | 0.2 to 2 nM
[H][C@]1(c2n[nH]c(=O)c3ccccc32)C[C@]2(C[C@@H](NC(=O)c3cc4cccc(F)c4[nH]3)C2)C1 (stereo partly drawn) [Example 333, 7-fluoro-N-((aR)-6-(4-oxo-3,4-dihydrophthalazin-1-yl)spiro[3.3]heptan-2-yl)-1H-indole-2-carboxamide] | 5.1 to 15 nM
CN(C)Cc1c(OCc2ccccc2)ccc2c(C(=O)NC3CC4(C3)CC(c3n[nH]c(=O)c5ccccc35)C4)cnn12 (stereo not drawn) [Example 130, 6-(benzyloxy)-7-((dimethylamino)methyl)-N-((αR)-6-(4-oxo-3,4-dihydrophthalazin-1-yl)spiro[3.3]heptan-2-yl)pyrazolo[1,5-α]pyridine-3-carboxamide] | 5.1 to 15 nM
CC(C)(O)COc1ccc2c(C(=O)NC3CC4(C3)CC(c3n[nH]c(=O)c5ccccc35)C4)cnn2c1C(N)=O [Example 110, 6-(2-hydroxy-2-methylpropoxy)-N3-((aR)-6-(4-oxo-3,4-dihydrophthalazin-1-yl)spiro[3.3]heptan-2-yl)pyrazolo[1,5-a]pyridine-3,7-dicarboxamide] | 15.1 to 100 nM
[H][C@]1(c2n[nH]c(=O)c3ccccc32)C[C@]2(C[C@@H](NC(=O)c3ccc(N4CCCC4)cn3)C2)C1 (stereo partly drawn) [Example 369, N-((aR)-6-(4-oxo-3,4-dihydrophthalazin-1-yl)spiro[3.3]heptan-2-yl)-5-(pyrrolidin-1-yl)picolinamide] | 15.1 to 100 nM
CCc1nn2cc(C(=O)NC3CC4(C3)CC(c3n[nH]c(=O)c5ccccc35)C4)nc2s1 [Example 95, 2-ethyl-N-((aR)-6-(4-oxo-3,4-dihydrophthalazin-1-yl)spiro[3.3]heptan-2-yl)imidazo[2,1-b][1,3,4]thiadiazole-6-carboxamide] | 5.1 to 15 nM
[H][C@]1(c2n[nH]c(=O)c3ccccc32)C[C@]2(C[C@@H](NC(=O)c3cc4cc(Cl)ccc4n3C)C2)C1 (stereo partly drawn) [Example 306, 5-chloro-1-methyl-N-((aR)-6-(4-oxo-3,4-dihydrophthalazin-1-yl)spiro[3.3]heptan-2-yl)-1H-indole-2-carboxamide] | 5.1 to 15 nM
[H][C@]1(c2n[nH]c(=O)c3ccccc32)C[C@]2(C[C@@H](NC(=O)c3cnc4ccccn34)C2)C1 (stereo partly drawn) [Example 318, N-((aR)-6-(4-oxo-3,4-dihydrophthalazin-1-yl)spiro[3.3]heptan-2-yl)imidazo[1,2-a]pyridine-3-carboxamide] | 5.1 to 15 nM
COc1ccccc1-n1cc(C(=O)NC2CC3(C2)CC(c2n[nH]c(=O)c4ccccc24)C3)nn1 (centres unmarked) [Example 129, 1-(2-methoxyphenyl)-N-((αR)-6-(4-oxo-3,4-dihydrophthalazin-1-yl)spiro[3.3]heptan-2-yl)-1H-1,2,3-triazole-4-carboxamide] | 5.1 to 15 nM
[H][C@]1(c2n[nH]c(=O)c3ccccc32)C[C@]2(C[C@@H](NC(=O)c3cccc(OCCN4CCOCC4)c3)C2)C1 (stereo partly drawn) [Example 338, 3-(2-morpholino-ethoxy)-N-((aR)-6-(4-oxo-3,4-dihydrophthalazin-1-yl)spiro[3.3]heptan-2-yl)benzamide] | 15.1 to 100 nM
Cn1cc(-c2ccc(NC(=O)NC3CC4(C3)CC(c3n[nH]c(=O)c5ccccc35)C4)cc2)cn1 [Example 228, 1-(4-(1-methyl-1H-pyrazol-4-yl)phenyl)-3-((aR)-6-(4-oxo-3,4-dihydrophthalazin-1-yl)spiro[3.3]heptan-2-yl)urea] | 5.1 to 15 nM
[H][C@]1(c2n[nH]c(=O)c3ccccc32)C[C@]2(C[C@@H](N(CC)C(=O)c3nn(C)c4ccccc34)C2)C1 (stereo partly drawn) [Example 267, N-ethyl-1-methyl-N-((aR)-6-(4-oxo-3,4-dihydrophthalazin-1-yl)spiro[3.3]heptan-2-yl)-1H-indazole-3-carboxamide] | 100 to 2100 nM
O=C(N[C@H]1CC2(C1)C[C@H](c1n[nH]c(=O)c3ccccc31)C2)c1cnn2cc(CN3CCOCC3)ccc12 (stereo partly drawn) [Example 200, 6-(morpholinomethyl)-N-((aR)-6-(4-oxo-3,4-dihydrophthalazin-1-yl)spiro[3.3]heptan-2-yl)pyrazolo[1,5-a]pyridine-3-carboxamide] | 5.1 to 15 nM
[H][C@]1(c2n[nH]c(=O)c3ccccc32)C[C@]2(C[C@@H](NC(=O)c3ccc(C(F)(F)F)cn3)C2)C1 (stereo partly drawn) [Example 370, N-((aR)-6-(4-oxo-3,4-dihydrophthalazin-1-yl)spiro[3.3]heptan-2-yl)-5-(trifluoromethyl) picolinamide] | 5.1 to 15 nM
CC(C)(C)n1cc(-c2ccc3c(c2)CN(C(=O)NC2CC4(C2)CC(c2n[nH]c(=O)c5ccccc25)C4)C3)cn1 [Example 252, 5-(1-(tert-butyl)-1H-pyrazol-4-yl)-N-((aR)-6-(4-oxo-3,4-dihydrophthalazin-1-yl)spiro[3.3]heptan-2-yl)isoindoline-2-carboxamide] | 5.1 to 15 nM
Cc1sc(N2CCCC2C(F)(F)F)nc1C(=O)NC1CC2(C1)CC(c1n[nH]c(=O)c3ccccc13)C2 [Example 59, 5-methyl-N-((aR)-6-(4-oxo-3,4-dihydrophthalazin-1-yl)spiro[3.3]heptan-2-yl)-2-((S)-2-(trifluoromethyl)pyrrolidin-1-yl)thiazole-4-carboxamide] | 5.1 to 15 nM
O=c1[nH]nc([C@H]2CC3(C[C@H](Nc4ccccc4[N+](=O)[O-])C3)C2)c2ccccc12 (stereo partly drawn) [Example 460, 4-((aR)-6-((2-nitrophenyl)amino)spiro[3.3]heptan-2-yl)phthalazin-1(2H)-one] | 15.1 to 100 nM
[H][C@]1(c2n[nH]c(=O)c3ccccc32)C[C@]2(C[C@@H](NC(=O)c3nnc4ccccn34)C2)C1 (stereo partly drawn) [Example 389, N-((aR)-6-(4-oxo-3,4-dihydrophthalazin-1-yl)spiro[3.3]heptan-2-yl)-[1,2,4]triazolo[4,3-a]pyridine-3-carboxamide] | 5.1 to 15 nM
[H][C@]1(c2n[nH]c(=O)c3ccccc32)C[C@]2(C[C@@H](NC(=O)c3nc4ccc(Cl)cc4[nH]3)C2)C1 (stereo partly drawn) [Example 305, 6-chloro-N-((aR)-6-(4-oxo-3,4-dihydrophthalazin-1-yl)spiro[3.3]heptan-2-yl)-1H-benzo[d] imidazole-2-carboxamide] | 15.1 to 100 nM

The remaining lines, values ahead:

IC50 | SMILES
5.1 to 15 nM | O=C(N[C@H]1CC2(C1)C[C@H](c1n[nH]c(=O)c3ccccc31)C2)c1cnn2cc(CO)ccc12 (stereo partly drawn) [Example 213, 6-(hydroxymethyl)-N-((aR)-6-(4-oxo-3,4-dihydrophthalazin-1-yl)spiro[3.3]heptan-2-yl)pyrazolo[1,5-a]pyridine-3-carboxamide]
5.1 to 15 nM | [H][C@]1(c2n[nH]c(=O)c3ccccc32)C[C@]2(C[C@@H](NC(=O)c3cccc(OC(F)F)c3)C2)C1 (stereo partly drawn) [Example 354, 3-(difluoromethoxy)-N-((aR)-6-(4-oxo-3,4-dihydrophthalazin-1-yl)spiro[3.3]heptan-2-yl)benzamide]
0.2 to 2 nM | [H][C@]1(c2n[nH]c(=O)c3ccccc32)C[C@]2(C[C@@H](NC(=O)c3cnc4cc(-c5cccnc5)ccn34)C2)C1 (stereo partly drawn) [Example 452, N-((aR)-6-(4-oxo-3,4-dihydrophthalazin-1-yl)spiro[3.3]heptan-2-yl)-7-(pyridin-3-yl)imidazo[1,2-a]pyridine-3-carboxamide]
2.01 to 5 nM | O=C(NC1CC2(C1)CC(c1n[nH]c(=O)c3ccccc13)C2)c1cnn2cc(CCC(=O)N3CCOCC3)ccc12 [Example 205, 6-(3-morpholino-3-oxopropyl)-N-((aR)-6-(4-oxo-3,4-dihydrophthalazin-1-yl)spiro[3.3]heptan-2-yl)pyrazolo[1,5-a]pyridine-3-carboxamide]
5.1 to 15 nM | CC(C)n1cc(-c2ccc3c(c2)CN(C(=O)NC2CC4(C2)CC(c2n[nH]c(=O)c5ccccc25)C4)C3)c(C(F)(F)F)n1 [Example 249, 5-(1-isopropyl-3-(trifluoromethyl)-1H-pyrazol-4-yl)-N-((aR)-6-(4-oxo-3,4-dihydrophthalazin-1-yl)spiro[3.3]heptan-2-yl)isoindoline-2-carboxamide]
2.01 to 5 nM | CC(C)(O)COc1ccc2c(C(=O)NC3CC4(C3)CC(c3n[nH]c(=O)c5ccccc35)C4)cnn2c1 [Example 67, 6-(2-hydroxy-2-methylpropoxy)-N-((aR)-6-(4-oxo-3,4-dihydrophthalazin-1-yl)spiro[3.3]heptan-2-yl)pyrazolo[1,5-a]pyridine-3-carboxamide]
0.2 to 2 nM | [H][C@]1(c2n[nH]c(=O)c3ccccc32)C[C@]2(C[C@@H](NC(=O)c3cnc4cc(OC(F)F)ccn34)C2)C1 (stereo partly drawn) [Example 406, 7-(difluoromethoxy)-N-((aR)-6-(4-oxo-3,4-dihydrophthalazin-1-yl)spiro[3.3]heptan-2-yl)imidazo[1,2-a]pyridine-3-carboxamide]
0.2 to 2 nM | O=C(NC1CC2(C1)CC(c1n[nH]c(=O)c3ccccc13)C2)c1cnn2cc(OC3CCC(F)(F)CC3)ccc12 (stereo not drawn) [Example 134, 6-((4,4-difluorocyclohexyl)oxy)-N-((αR)-6-(4-oxo-3,4-dihydrophthalazin-1-yl)spiro[3.3]heptan-2-yl)pyrazolo[1,5-α]pyridine-3-carboxamide]
0.2 to 2 nM | [H][C@]1(c2n[nH]c(=O)c3ccccc32)C[C@]2(C[C@@H](NC(=O)c3cc4cccc(C(F)(F)F)c4[nH]3)C2)C1 (stereo partly drawn) [Example 332, N-((aR)-6-(4-oxo-3,4-dihydrophthalazin-1-yl)spiro[3.3]heptan-2-yl)-7-(trifluoromethyl)-1H-indole-2-carboxamide]
2.01 to 5 nM | CC(C)(O)COc1ccc2c(C(=O)NC3CC4(C3)CC(c3c[nH]c(=O)c5ccccc35)C4)cnn2c1 (centres unmarked) [Example 271, 6-(2-hydroxy-2-methylpropoxy)-N-(6-(1-oxo-1,2-dihydroisoquinolin-4-yl)spiro[3.3]heptan-2-yl)pyrazolo[1,5-a]pyridine-3-carboxamide]
